Reference: patent US4241182A, “Fortimicin factors KG1, KG2 and KG3 and processes for production thereof” (Kyowa Hakko Kogyo Co., Ltd., priority 1978, dated 1980)
In brackets after ≈: the same amount, converted by molar mass. Where two headings read alike, the source gives them in different places.

Key:
Escherichia coli ATCC 26 = assay: Antibacterial spectrum, agar dilution method; type: cell-based
Description: (§1) Table 3 illustrates the antibacterial spectra of Fortimicin factors KG1, KG2 and KG3 against various microorganisms.
(§2) (Minimum Inhibitory Concentration, μg/ml measured by
(§3) agar dilution method at pH 8.0)

Escherichia coli KY8302 = assay: Antibacterial spectrum, agar dilution method; type: cell-based; details: for MIC: Escherichia coli, KY8302, pH 8, Escherichia coli KY8302 (resistant to chloramphenicol, streptomycin, kanamycin, paromomycin, tetracycline and spectinomycin), read-out: Minimum Inhibitory Concentration
Description: as §1, §2, §3

Escherichia coli KY8327 = assay: Antibacterial spectrum, agar dilution method; type: cell-based; details: for MIC: Escherichia coli, KY8327, pH 8, Escherichia coli KY8327 (resistant to kanamycin, gentamicin and tobramycin), read-out: Minimum Inhibitory Concentration
Description: as §1, §2, §3

Escherichia coli KY8348 = assay: Antibacterial spectrum, agar dilution method; type: cell-based; details: for Minimum Inhibitory Concentration: Escherichia coli KY8348 (resistant to streptomycin and gentamicin), pH 8.0
Description: as §1, §2, §3

[1] = test system: Proteus vulgaris ATCC 6897; assay: Antibacterial spectrum, agar dilution method; type: cell-based
Description: as §1, §2, §3

[2] = test system: Pseudomonas aeruginosa BMH#1; assay: Antibacterial spectrum, agar dilution method; type: cell-based
Description: as §1, §2, §3

[3] = test system: Staphylococcus aureus ATCC 6538P; assay: Antibacterial spectrum, agar dilution method; type: cell-based; details: for MIC: Staphylococcus aureus, ATCC6538P, pH 8, Staphylococcus aureus ATCC 6538P, read-out: Minimum Inhibitory Concentration
Description: as §1, §2, §3

[4] = test system: Gram-positive and Gram-negative bacteria; assay: Antibacterial spectrum (summary of Table 3); type: cell-based
Description: as §1, §2, §3

[5] = Solubility of the free base; type: physicochemical; details: for solubility in ethanol and acetone / solubility in methanol / solubility in organic solvents such as chloroform, benzene, ethyl acetate, butyl acetate, ethyl ether, butanol, petroleum ether, n-hexane / solubility in water: free base
[6] = test system: Bacillus subtilis No. 10707; assay: Activity of isolated substance (units per mg), paper disc method; type: cell-based
Protocol: After the completion of fermentation, the culture liquor is adjusted to pH 2.5 with concentrated sulfuric acid and is stirred for 30 minutes. Thereafter, about 7 kg of a filter aid, Radiolite No. 600 (product of Showa Kagaku Kogyo Co., Ltd., Japan) is added to the culture liquor and the microbial cells are removed by filtration. The filtrate is adjusted to pH 7.5 by the addition of 6 N sodium hydroxide, and then flowed through a column packed with about 20 l of a cation exchange resin, Amberlite IRC-50 (ammonium form). The active principles are adsorbed on the resin, and the effluent is discarded. After the resin is washed with water, elution of the active principles is carried out with 1 N aqueous ammonia. The eluate is subjected to determination of activity by a paper disc method using an agar plate of Bacillus subtilis No. 10707. Fractions showing an activity are combined and concentrated under reduced pressure to about 1 l. The concentrate is adjusted to pH 7 with concentrated hydrochloric acid and then flowed through a column packed with 3 l of Amberlite CG-50 (ammonium form). After the resin is washed with water, elution is carried out with 0.1 N NH4 OH containing 0.1 M NH4 Cl. The eluate is taken in 500 ml fractions. Each fraction is subjected to determination of antibacterial activity against Bacillus subtilis No. 10707 and identification of active component by silica gel thin layer chromatography [Developer: the lower layer of a mixed solvent of chloroform, methanol and concentrated aqueous ammonia (2:1:1 by volume), Coloring agent: ninhydrin]. After the volume of the eluate reaches about 3 l, Fortimicin factors KG1, KG2 and KG3 begin to be eluted. The fractions containing Fortimicin factors KG1, KG2 and KG3 are collected, concentrated under reduced pressure to remove ammonia, neutralized with concentrated hydrochloric acid and flowed through a column packed with 500 ml of Amberlite IRC-50 (ammonium form). After the resin is washed with water, elution is carried out with 0.5 N aqueous ammonia. The active fractions are collected, concentrated under reduced pressure and freeze-dried to obtain 2 g of a white powder. The powder contains in it 250 mg of Fortimicin KG1, 640 mg of Fortimicin KG2 and 330 mg of Fortimicin KG3.
2 g of the crude powder is placed on a silica gel column (Silica gel: produced by Wako Junyaku Co., Ltd., Japan, Diameter of column: about 3 cm). Development is carried out with the lower layer of a mixed solvent of chloroform, methanol and concentrated aqueous ammonia (3:1:1 by volume). The eluate is taken in 20 ml fractions. Each fraction is subjected to the silica gel thin layer chromatography. First, Fortimicin B is eluted and then Fortimicin factors KG2, KG1 and KG3 are eluted in this order. The fractions respectively containing Fortimicin factors KG1, KG2 and KG3 are collected, concentrated under reduced pressure and freeze-dried to obtain 200 mg of Fortimicin KG1, [Activity: 970 u/mg (u: unit)], 500 mg of Fortimicin KG2 (Activity: 970 u/mg) and 250 mg of Fortimicin KG3 (Activity: 950 u/mg) (Activity of each of the purified substances is considered to be 1000 u/mg).

[7] = test system: Bacillus subtilis No. 10707; assay: Antibacterial spectrum, agar dilution method; type: cell-based; details: pH 8.0, read-out: Minimum Inhibitory Concentration
Description: as §1, §2, §3

[8] = test system: Klebsiella pneumoniae ATCC 10031; assay: Antibacterial spectrum, agar dilution method; type: cell-based; details: ATCC10031, pH 8.0, read-out: Minimum Inhibitory Concentration
Description: as §1, §2, §3

[9] = test system: Salmonella typhosa ATCC 9992; assay: Antibacterial spectrum, agar dilution method; type: cell-based; details: Salmonella enterica, pH 8, read-out: Minimum Inhibitory Concentration
Description: as §1, §2, §3

[10] = test system: Shigella sonnei ATCC 9290; assay: Antibacterial spectrum, agar dilution method; type: cell-based; details: ATCC9290, pH 8.0, read-out: Minimum Inhibitory Concentration
Description: as §1, §2, §3

[11] = test system: certain strains of Escherichia coli which are resistant to various antibiotics; assay: Antibacterial activity against resistant strains (summary of Table 3); type: cell-based
Description: as §1, §2, §3

[12] = Acute toxicity, intravenous administration in mice; details: mouse, in vivo
[13] = ATCC6897, Proteus vulgaris ATCC 6897, pH 8.0, read-out: Minimum Inhibitory Concentration
[14] = after silica gel chromatography, pure substance considered 1000 u/mg
[15] = Pseudomonas aeruginosa BMH#1, pH 8.0, read-out: Minimum Inhibitory Concentration

Row | SMILES | Minimum Inhibitory Concentration (Escherichia coli KY8348) [µg/mL] | MIC [1, 13] [µg/mL] | antibacterial activity / spectrum (in words) [4] | solubility in ethanol and acetone [5] | solubility in methanol [5] | solubility in organic solvents such as chloroform, benzene, ethyl acetate, butyl acetate, ethyl ether, butanol, petroleum ether, n-hexane [5] | solubility in water [5] | solubility in the ordinary organic solvents [5] | Activity [6, 14] [u/mg] | Activity ([6]; sulfate, u: unit) [u/mg] | MIC (Escherichia coli KY8302) [µg/mL] | MIC (Escherichia coli KY8327) [µg/mL] | MIC [2, 15] [µg/mL] | MIC [3] [µg/mL] | also measured
1 | CNC1C(O)C(OC2OC(C(C)N)=CCC2N)C(N)C(O)C1OC (stereo not drawn) [Fortimicin KG2] | 166.6 | 83.3 (≈ 240 µM) | broad antibacterial spectrum | slightly soluble | soluble | insoluble | readily soluble | poorly soluble | 970 |  |  |  |  |  | Minimum Inhibitory Concentration (Escherichia coli ATCC 26; Escherichia coli ATCC 26, pH 8.0): 41.7 µg/mL; Minimum Inhibitory Concentration (Escherichia coli KY8302; Escherichia coli KY8302 (resistant to chloramphenicol, streptomycin, kanamycin, paromomycin, tetracycline and spectinomycin), pH 8.0): 41.7 µg/mL; Minimum Inhibitory Concentration (Escherichia coli KY8327; Escherichia coli KY8327 (resistant to kanamycin, gentamicin and tobramycin), pH 8.0): 20.9 µg/mL; MIC ([2]; Pseudomonas aeruginosa, pH 8, read-out: Minimum Inhibitory Concentration, Pseudomonas aeruginosa BMH#1): > 167 µg/mL; Minimum Inhibitory Concentration ([3]; Staphylococcus aureus ATCC 6538P, pH 8.0): 10.5 µg/mL
2 | COC1C(O)C(N)C(OC2OC(C(C)N)=CCC2N)C(O)C1N(C)C(=O)CN (stereo not drawn) [sulfate of Fortimicin KG3] |  |  |  |  |  |  |  |  |  | 650 |  |  |  |  | 
3 | COC1C(O)C(N)C(OC2OC(C(C)N)=CCC2N)C(O)C1N(C)C(=O)CN (stereo not drawn) [Fortimicin KG3] |  | 0.66 (≈ 1.64 µM) | strong antibacterial activity against a broad range of Gram-positive and Gram-negative bacteria | slightly soluble | soluble | insoluble | readily soluble | poorly soluble | 950 |  | 0.52 (≈ 1.29 µM) | 0.33 (≈ 0.818 µM) | 5.2 (≈ 12.9 µM) | 0.083 (≈ 0.206 µM) | MIC [7]: < 0.045 µg/mL; MIC (Escherichia coli ATCC 26; ATCC26, Escherichia coli ATCC 26, pH 8.0, read-out: Minimum Inhibitory Concentration): 0.33 µg/mL (≈ 0.818 µM); MIC (Escherichia coli KY8348; Escherichia coli, KY8348, pH 8, Escherichia coli KY8348 (resistant to streptomycin and gentamicin), read-out: Minimum Inhibitory Concentration): 10.4 µg/mL (≈ 25.8 µM); MIC [8]: 0.18 µg/mL (≈ 0.446 µM); MIC [9]: 0.18 µg/mL (≈ 0.446 µM); MIC [10]: 0.7 µg/mL (≈ 1.73 µM); effectiveness against resistant Escherichia coli (in words) [11]: effective against certain strains of Escherichia coli which are resistant to various antibiotics; LD50 [12]: 225 mg/kg
4 | CNC1C(O)C(OC2OC(C(C)N)=CCC2N)C(N)C(O)C1OC (stereo not drawn) [sulfate of Fortimicin KG2] |  |  |  |  |  |  |  |  |  | 620 |  |  |  |  | 
5 | CNC1C(O)C(OC2OC(C(C)N)=CCC2N)C(N)C(O)C1OC (stereo not drawn) [Fortimicin KG1] | 26.1 |  | broad antibacterial spectrum | slightly soluble | soluble | insoluble | readily soluble | poorly soluble | 970 |  | 26.1 (≈ 75.3 µM) | 26.1 (≈ 75.3 µM) | > 208 | 13.1 (≈ 37.8 µM) | MIC (Escherichia coli ATCC 26; Escherichia coli, ATCC26, pH 8, read-out: Minimum Inhibitory Concentration, Escherichia coli ATCC 26): 26.1 µg/mL (≈ 75.3 µM); MIC ([1]; Proteus vulgaris, ATCC6897, pH 8, read-out: Minimum Inhibitory Concentration, Proteus vulgaris ATCC 6897): 26.1 µg/mL (≈ 75.3 µM)
6 | CNC1C(O)C(OC2OC(C(C)N)=CCC2N)C(N)C(O)C1OC (stereo not drawn) [sulfate of Fortimicin KG1] |  |  |  |  |  |  |  |  |  | 620 |  |  |  |  | 
